The text below walks through data of patent US20170129916A1, “NOVEL BETULINIC PROLINE IMIDAZOLE DERIVATIVES AS HIV INHIBITORS” (HETERO RESEARCH FOUNDATION, priority 2014, published 2017).

For data set [1], the system named is HIV-1 strains, for e.g., 92HT599. Kind of data set: Antiviral activity: p24 estimation in MT-2 cells infected with HIV-1. The data set is classed as cell-based. As to conditions: Human immunodeficiency virus 1, MT2, MT-2 cells infected with HIV-1, p24, ~96 hours; for IC50: read-out: Antiviral activity IC50 (nM) Efficacy IC50. On the procedure: MT-2 cells were infected with required number of TCID50's of HIV-1 strains, for e.g., 92HT599. The infected cells were plated at the concentration of 30, 000 cells per well in a 96 well plate. Test compound was added to the 96 well plate with the final concentration of DMSO (vehicle—not more than 1%). The plates are then incubated in a CO2 incubator for ˜96 hours (˜4 days) for viral infection. At the end of incubation period an aliquot from each well was taken for p24 estimation. The quantitation of p24 is an estimated index for antiviral activity of the compound. Percent inhibition was calculated with reference to control values (vehicle controls).
p-24 estimation was carried out using Advance biosciences kit as per the procedure detailed by supplier.

Data set [2] in a line: Single dose oral pharmacokinetic study. Format: in vivo. Particulars: mouse, mice, 30 mg/kg, plasma; for AUC(0-t): read-out: Mice oral PK @30 mg/kg AUC 0-t; for Cmax: read-out: Mice oral PK @30 mg/kg Cmax. Summed up:
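Rats or mice received 30 mg/kg orally at 10 ml/kg dose volume. Retro-orbital blood was taken into K3 EDTA at defined intervals under light ether anesthesia and centrifuged to plasma. Plasma levels were measured by LC-MS-MS.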

In general, IC50 refers to the concentration needed to halve the response being measured. Consider `C=C(C)[C@@H]1CC[C@]2(C(=O)N3CCC[C@H]3c3ncc(C(C)(C)C)o3)CC[C@]3(C)[C@H](CC[C@@H]4[C@@]5(C)CC[C@H](OC(=O)[C@H]6C[C@@H](C(=O)O)C6(C)C)C(C)(C)[C@@H]5CC[C@]43C)[C@@H]12` [Compound 16, (1R,3S)-3-((((1R,3aS,5aR,5bR,7aR,9S,11aR,11bR,13aR,13bR)-3a-((S)-2-(5-(tert-butyl)oxazol-2-yl)pyrrolidine-1-carbonyl)-5a,5b,8,8,11a-pentamethyl-1-(prop-1-en-2-yl)icosahydro-1H-cyclopenta[a]chrysen-9-yl)oxy)carbonyl)-2,2-dimethylcyclobutane-1-carboxylic acid], for which the IC50 in data set [1] was 103 nM. Also, in data set [2], the AUC(0-t) worked out at 229 µg·h/mL and the Cmax was determined as 7890 ng/mL.
With `C=C(C)[C@@H]1CC[C@]2(C(=O)N3CCC[C@H]3c3nc(-c4ccccc4)co3)CC[C@]3(C)[C@H](CC[C@@H]4[C@@]5(C)CC[C@H](OC(=O)[C@H]6C[C@@H](C(=O)O)C6(C)C)C(C)(C)[C@@H]5CC[C@]43C)[C@@H]12` [Compound 17, (1R,3S)-2,2-dimethyl-3-((((1R,3aS,5aR,5bR,7aR,9S,11aR,11bR,13aR,13bR)-5a,5b,8,8,11a-pentamethyl-3a-((S)-2-(4-phenyloxazol-2-yl)pyrrolidine-1-carbonyl)-1-(prop-1-en-2-yl)icosahydro-1H-cyclopenta[a]chrysen-9-yl)oxy)carbonyl)cyclobutane-1-carboxylic acid], the concentration for half-maximal inhibition (IC50) in data set [1] was 58.6 nM. Moreover, in data set [2], the AUC(0-t) was determined as 219 µg·h/mL and the Cmax came to 7090 ng/mL.
For `C=C(C)[C@@H]1CC[C@]2(C(=O)N3CCC[C@H]3c3nc(C(C)(C)C)c[nH]3)CC[C@]3(C)[C@H](CC[C@@H]4[C@@]5(C)CC[C@H](OC(=O)[C@H]6C[C@@H](C(=O)O)C6(C)C)C(C)(C)[C@@H]5CC[C@]43C)[C@@H]12` [Compound 18, (1R,3S)-3-((((1R,3aS,5aR,5bR,7aR,9S,11aR,11bR,13aR,13bR)-3a-((S)-2-(4-(tert-butyl)-1H-imidazol-2-yl)pyrrolidine-1-carbonyl)-5a,5b,8,8,11a-pentamethyl-1-(prop-1-en-2-yl)icosahydro-1H-cyclopenta[a]chrysen-9-yl)oxy)carbonyl)-2,2-dimethylcyclobutane-1-carboxylic acid], in that order: 35.8 nM, 409 µg·h/mL and 16400 ng/mL.
For `C=C(C)[C@@H]1CC[C@]2(C(=O)N3CCC[C@H]3c3ncc(-c4ccccc4)[nH]3)CC[C@]3(C)[C@H](CC[C@@H]4[C@@]5(C)CC[C@H](OC(=O)C[C@H]6C[C@@H](C(=O)O)C6(C)C)C(C)(C)[C@@H]5CC[C@]43C)[C@@H]12` [Compound 21, (1R,3R)-2,2-dimethyl-3-(2-oxo-2-(((1R,3aS,5aR,5bR,7aR,9S,11aR,11bR,13aR,13bR)-5a,5b,8,8,11a-pentamethyl-3a-((S)-2-(5-phenyl-1H-imidazol-2-yl)pyrrolidine-1-carbonyl)-1-(prop-1-en-2-yl)icosahydro-1H-cyclopenta[a]chrysen-9-yl)oxy)ethyl)cyclo butane-1-carboxylic acid], in that order: 1.29 nM, 269 µg·h/mL and 13000 ng/mL.
For `C=C(C)[C@@H]1CC[C@]2(C(=O)N3CCC[C@H]3c3ncc(-c4ccccc4)[nH]3)CC[C@]3(C)[C@H](CC[C@@H]4[C@@]5(C)CC[C@H](OC(=O)c6ccc(OC(C)(C)C(=O)O)cc6)C(C)(C)[C@@H]5CC[C@]43C)[C@@H]12` [Compound 23, 2-methyl-2-(4-((((1R,3aS,5aR,5bR,7aR,9S,11aR,11bR,13aR,13bR)-5a,5b,8,8,11a-pentamethyl-3a-((S)-2-(5-phenyl-1H-imidazol-2-yl)pyrrolidine-1-carbonyl)-1-(prop-1-en-2-yl)icosahydro-1H-cyclopenta[a]chrysen-9-yl)oxy)carbonyl)phenoxy)propanoic acid], in that order: 0.7 nM, 302 µg·h/mL and 10600 ng/mL.
Consider `C=C(C)[C@@H]1CC[C@]2(C(=O)N3CCC[C@H]3c3nnc(-c4ccccc4)[nH]3)CC[C@]3(C)[C@H](CC[C@@H]4[C@@]5(C)CC[C@H](OC(=O)[C@H]6C[C@@H](C(=O)O)C6(C)C)C(C)(C)[C@@H]5CC[C@]43C)[C@@H]12` [Compound 24, (1R,3S)-2,2-dimethyl-3-((((1R,3aS,5aR,5bR,7aR,9S,11aR,11bR,13aR,13bR)-5a,5b,8,8,11a-pentamethyl-3a-((S)-2-(5-phenyl-4H-1,2,4-triazol-3-yl)pyrrolidine-1-carbonyl)-1-(prop-1-en-2-yl)icosahydro-1H-cyclopenta[a]chrysen-9-yl)oxy)carbonyl)cyclobutane-1-carboxylic acid], for which the IC50 in data set [1] was 9.06 nM. Moreover, in data set [2], the AUC(0-t) was determined as 439 µg·h/mL and the Cmax amounted to 12200 ng/mL.
The inhibition is the relative decrease from the control value, in per cent. For `C=C(C)[C@@H]1CC[C@]2(C(=O)N3CCC[C@H]3c3nc(-c4cccc(Cl)c4)c[nH]3)CC[C@]3(C)[C@H](CC[C@@H]4[C@@]5(C)CC[C@H](OC(=O)[C@H]6C[C@@H](C(=O)O)C6(C)C)C(C)(C)[C@@H]5CC[C@]43C)[C@@H]12` [Compound 28, (1R,3S)-3-((((1R,3aS,5aR,5bR,7aR,9S,11aR,11bR,13aR,13bR)-3a-((S)-2-(4-(3-chlorophenyl)-1H-imidazol-2-yl)pyrrolidine-1-carbonyl)-5a,5b,8,8,11a-pentamethyl-1-(prop-1-en-2-yl)icosahydro-1H-cyclopenta[a]chrysen-9-yl)oxy)carbonyl)-2,2-dimethylcyclobutane-1-carboxylic acid], in data set [1], the inhibition at 0.1 µM is 54%, the inhibition at 1 µM is 99% and the IC50 is 19.4 nM. Also, in data set [2], the AUC(0-t) is 248 µg·h/mL and the Cmax amounted to 10000 ng/mL.
The matching figures for `C=C(C)[C@@H]1CC[C@]2(C(=O)N3C[C@H](O)C[C@H]3c3nc(-c4ccccc4)c[nH]3)CC[C@]3(C)[C@H](CC[C@@H]4[C@@]5(C)CC[C@H](OC(=O)[C@H]6C[C@@H](C(=O)O)C6(C)C)C(C)(C)[C@@H]5CC[C@]43C)[C@@H]12` [Compound 29, (1R,3S)-3-((((1R,3aS,5aR,5bR,7aR,9S,11aR,11bR,13aR,13bR)-3a-((2S,4R)-4-hydroxy-2-(4-phenyl-1H-imidazol-2-yl)pyrrolidine-1-carbonyl)-5a,5b,8,8,11a-pentamethyl-1-(prop-1-en-2-yl)icosahydro-1H-cyclopenta[a]chrysen-9-yl)oxy)carbonyl)-2,2-dimethyl cyclobutane-1-carboxylic acid]: 99%, 99%, 12.3 nM, 57.5 µg·h/mL and 4500 ng/mL.
The matching figures for `C=C(C)[C@@H]1CC[C@]2(C(=O)N3C[C@H](OCCOC)C[C@H]3c3nc(C(C)(C)C)c[nH]3)CC[C@]3(C)[C@H](CC[C@@H]4[C@@]5(C)CC[C@H](OC(=O)[C@H]6C[C@@H](C(=O)O)C6(C)C)C(C)(C)[C@@H]5CC[C@]43C)[C@@H]12` [Compound 31, (1R,3S)-3-((((1R,3aS,5aR,5bR,7aR,9S,11aR,11bR,13aR,13bR)-3a-((2S,4R)-2-(4-(tert-butyl)-1H-imidazol-2-yl)-4-(2-methoxyethoxy)pyrrolidine-1-carbonyl)-5a,5b,8,8,11a-pentamethyl-1-(prop-1-en-2-yl)icosahydro-1H-cyclopenta[a]chrysen-9-yl)oxy)carbonyl)-2,2-dimethylcyclobutane-1-carboxylic acid]: 100%, 100%, 19.7 nM, 195 µg·h/mL and 9200 ng/mL.
The matching figures for `C=C(C)[C@@H]1CC[C@]2(C(=O)N3C[C@H](OC)C[C@H]3c3nc(-c4ccccc4)c[nH]3)CC[C@]3(C)[C@H](CC[C@@H]4[C@@]5(C)CC[C@H](OC(=O)[C@H]6C[C@@H](C(=O)O)C6(C)C)C(C)(C)[C@@H]5CC[C@]43C)[C@@H]12` [Compound 32, (1R,3S)-3-((((1R,3aS,5aR,5bR,7aR,9S,11aR,11bR,13aR,13bR)-3a-((2S,4R)-4-methoxy-2-(4-phenyl-1H-imidazol-2-yl)pyrrolidine-1-carbonyl)-5a,5b,8,8,11a-pentamethyl-1-(prop-1-en-2-yl)icosahydro-1H-cyclopenta[a]chrysen-9-yl)oxy)carbonyl)-2,2-dimethylcyclobutane-1-carboxylic acid]: 60%, 99%, 23.3 nM, 316 µg·h/mL and 13900 ng/mL.
